Test results taken from ChEMBL document CHEMBL1201862, “PubChem BioAssay data set” (2004).
Where “and” joins values, the source holds several entries; their conditions need not be identical. Equal entries are not always repeated. Calls of active or inactive are those of the source.

Columns and labels:
[1] = molecular target: T1, Genome polyprotein (Hepatitis C virus, UniProt Q2Q167); assay: disruption of hepatitis C core self-association – biochemical, TR-FRET, dose response (AID 2159); parameters: species or system Hepacivirus hominis;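 note: blocks dimerization of HCV core protein measured by TR-FRET between tagged core106 pairs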
T1 sequence (Q2Q167 whole entry): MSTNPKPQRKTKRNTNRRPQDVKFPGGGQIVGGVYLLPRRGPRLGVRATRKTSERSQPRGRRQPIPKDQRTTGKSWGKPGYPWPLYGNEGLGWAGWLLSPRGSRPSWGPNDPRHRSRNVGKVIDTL

[2] = molecular target: Protein Rev (Human immunodeficiency virus type 1 group M subtype B (isolate WMJ22)(HIV-1), UniProt P05866); assay: inhibitors of Rev protein–RRE RNA complex – biochemical, protein-RNA interaction, dose response (AID 842); parameters: species or system Human immunodeficiency virus 1
[3] = molecular target: T2, Voltage-gated N-type calcium channel alpha-1B subunit/Amyloid beta A4 precursor protein-binding family A member 1 (Homo sapiens, UniProt Q00975+Q02410); format: protein assay
[4] = molecular target: T2, Voltage-gated N-type calcium channel alpha-1B subunit/Amyloid beta A4 precursor protein-binding family A member 1; format: protein assay; remark: listed apart in the source
[5] = molecular target: T3, Induced myeloid leukemia cell differentiation protein Mcl-1 (Homo sapiens, UniProt Q07820); assay: blockers of MCL1 binding to BIM peptide – biochemical, fluorescence polarization, BIM-BH3 peptide, 1536-well, dose response (AID 2217)
[6] = molecular target: Protein-tyrosine kinase 2-beta (Homo sapiens, UniProt Q14289);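 note: potency of inhibitors of PYK2 kinase phosphorylation of poly-GT substrate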
[7] = molecular target: Bcl-2-like protein 1 (Homo sapiens, UniProt Q07817); assay: blockers of BCLXL peptide binding – biochemical, fluorescence polarization, 1536-well, selectivity assay for MCL1 inhibitor project, dose response (AID 2218)
[8] = molecular target: T3, Induced myeloid leukemia cell differentiation protein Mcl-1; format: functional
[9] = molecular target: SUMO E1/E2 (Homo sapiens, UniProt P63279+Q9UBE0+Q9UBT2); assay: SAR analysis of SUMOylation using HTRF in an in-Vitro dose response assay. [Related pubchem assays (depositor defined):AID2006, AID2011, AID2018, AID2069, AID2658]; format: functional
[10] = molecular target: T2, Voltage-gated N-type calcium channel alpha-1B subunit/Amyloid beta A4 precursor protein-binding family A member 1; assay: disruptors of Mint-PDZ/N-type channel peptide interaction – biochemical, HTRF, set 2, SAR follow-up (AID 434980); format: functional
[11] = molecular target: T2, Voltage-gated N-type calcium channel alpha-1B subunit/Amyloid beta A4 precursor protein-binding family A member 1; assay: disruptors of Mint-PDZ/N-type channel peptide interaction – biochemical, HTRF, SAR follow-up (AID 2489); format: functional
[12] = molecular target: DNA (cytosine-5)-methyltransferase 1 (Homo sapiens, UniProt P26358); assay: inhibition of DNA methylation by DNMT1 – biochemical, fluorescent molecular beacon, confirmation (AID 602386); format: functional
[13] = molecular target: T4, Probable nicotinate-nucleotide adenylyltransferase (Staphylococcus aureus (strain N315), UniProt P65502); format: functional, Staphylococcus aureus subsp. aureus N315;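 for IC50 Mean: confirmatory dose-response retesting of NadD inhibitor hits first found in an ultra-high-throughput screen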
[14] = molecular target: T4, Probable nicotinate-nucleotide adenylyltransferase; format: functional, Staphylococcus aureus subsp. aureus N315; conditions: read-out: IC50_Mean
[15] = Luminescence Cell-Based/Microorganism Confirmation at Dose of Inhibitors of Trypanosoma cruzi Infection. [Related pubchem assays: 1885, 1968 ]; format: functional
[16] = Trypanosoma cruzi growth suppression in host cells – NIH3T3 host cells, beta-gal luminescence, confirmation (AID 2044); format: functional, cell-based;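 note: intracellular parasites grown in NIH/3T3 mouse fibroblasts as host cells; luminescent beta-galactosidase reporter signal from transgenic T. cruzi replicating inside host cells; inhibitors lower the luminescence signal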
[17] = Luminescence Cell-Based Secondary HTS screen to identify cytotoxic compounds of NIH3T3 cells. [Related pubchem assays: 1885, 1968 ]; format: functional
[18] = NIH3T3 cell viability loss – ATP luminescence, mouse fibroblasts, counter-screen, dose response (AID 2010); format: functional, cell-based;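 note: cells exposed to compound for about 90 hours before reading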
[19] = T. cruzi infection blockers in NIH3T3 cells – beta-gal luminescence, NIH3T3 host cells, confirmation (AID 2630); format: functional, cell-based; conditions: Mus musculus
[20] = cells
[21] = NIH-3T3 fibroblast cytotoxicity, dose response, cytotoxicity control, cell-based, fluorescence, Alamar Blue, secondary assay (AID 2327); format: functional;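 note: NIH-3T3 mouse fibroblasts cultured with fluconazole at 8 µg/mL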
[22] = tested on: Streptococcus sp. 'group A'; assay: Streptococcus pyogenes SK(-)GAS viability under kanamycin – luminescence, BacTiterGlo, confirmation, counter-screen for streptokinase expression inhibitor project, dose response (AID 1900); format: functional, organism-based
[23] = molecular target: T5, Streptokinase A (Streptococcus pyogenes serotype M1, UniProt P10520); assay: viability-normalized secreted streptokinase activity reduction – plasminogen activation absorbance, OD405, dose response (AID 1914); format: functional, Streptococcus pyogenes M1 GAS;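 note: secreted streptokinase activity via plasminogen activation per viability signal from cell pellet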
T5 sequence (P10520 whole entry): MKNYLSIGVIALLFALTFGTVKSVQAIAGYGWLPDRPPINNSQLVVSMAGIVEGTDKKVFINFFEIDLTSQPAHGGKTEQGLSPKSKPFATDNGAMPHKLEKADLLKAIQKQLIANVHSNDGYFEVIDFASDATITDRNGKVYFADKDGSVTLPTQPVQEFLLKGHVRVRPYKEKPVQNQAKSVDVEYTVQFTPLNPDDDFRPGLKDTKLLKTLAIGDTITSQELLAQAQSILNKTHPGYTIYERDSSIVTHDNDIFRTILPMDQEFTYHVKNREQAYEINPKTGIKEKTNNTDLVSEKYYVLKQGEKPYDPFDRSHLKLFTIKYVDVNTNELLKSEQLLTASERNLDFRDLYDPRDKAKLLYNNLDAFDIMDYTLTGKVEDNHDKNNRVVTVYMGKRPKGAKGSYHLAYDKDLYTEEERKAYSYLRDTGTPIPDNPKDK

[24] = fluconazole-exposed Candida albicans growth modulators – fluorescence, retest, confirmation (AID 2467); format: functional, cell-based
[25] = tested on: Streptococcus; assay: GAS UMAA2166 growth inhibition – luminescence, BacTiterGlo, counter-screen for streptokinase expression inhibitor project, dose response (AID 1915); format: functional, organism-based;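 note: potency for reduction of bacterial viability or growth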
[26] = molecular target: Intestinal-type alkaline phosphatase (Mus musculus, UniProt P24822); assay: PubChem AID 488875; format: functional
[27] = molecular target: T6, Intestinal-type alkaline phosphatase (Homo sapiens, UniProt P09923); assay: human intestinal alkaline phosphatase activators, dose response, biochemical, luminescence, uHTS hits (AID 463120); format: functional
[28] = molecular target: T6, Intestinal-type alkaline phosphatase; assay: activation of human intestinal alkaline phosphatase – biochemical, luminescent, uHTS hits, set 2, dose response (AID 488817); format: functional;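 note: potency of activators that raise enzyme activity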
[29] = molecular target: T7, Alkaline phosphatase, tissue-nonspecific isozyme (Homo sapiens, UniProt P05186); assay: activation of tissue-nonspecific alkaline phosphatase – biochemical, TNAP isozyme, human IAP uHTS hits, selectivity assay for human IAP activator project, dose response (AID 488886); format: functional;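 note: potency of compounds raising TNAP activity as a selectivity check on IAP activators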
T7 sequence (P05186 whole entry): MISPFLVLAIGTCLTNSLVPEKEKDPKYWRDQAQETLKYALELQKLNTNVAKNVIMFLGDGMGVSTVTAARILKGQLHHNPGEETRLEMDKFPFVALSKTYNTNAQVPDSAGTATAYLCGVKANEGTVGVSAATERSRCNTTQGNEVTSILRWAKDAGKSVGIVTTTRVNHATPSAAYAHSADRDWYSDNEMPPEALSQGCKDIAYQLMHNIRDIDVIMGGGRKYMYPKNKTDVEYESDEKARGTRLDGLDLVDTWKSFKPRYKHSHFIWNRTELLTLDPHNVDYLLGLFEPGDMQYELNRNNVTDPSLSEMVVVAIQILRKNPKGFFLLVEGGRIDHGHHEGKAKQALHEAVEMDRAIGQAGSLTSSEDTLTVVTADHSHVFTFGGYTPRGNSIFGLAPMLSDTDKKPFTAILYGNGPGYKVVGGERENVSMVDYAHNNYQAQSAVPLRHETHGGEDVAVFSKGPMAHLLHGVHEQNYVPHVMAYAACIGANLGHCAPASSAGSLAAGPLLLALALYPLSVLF

[30] = molecular target: T8, Estrogen receptor (Homo sapiens, UniProt P03372);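 note: potency for inhibiting coactivator peptide recruitment to the receptor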
T8 sequence (P03372 whole entry): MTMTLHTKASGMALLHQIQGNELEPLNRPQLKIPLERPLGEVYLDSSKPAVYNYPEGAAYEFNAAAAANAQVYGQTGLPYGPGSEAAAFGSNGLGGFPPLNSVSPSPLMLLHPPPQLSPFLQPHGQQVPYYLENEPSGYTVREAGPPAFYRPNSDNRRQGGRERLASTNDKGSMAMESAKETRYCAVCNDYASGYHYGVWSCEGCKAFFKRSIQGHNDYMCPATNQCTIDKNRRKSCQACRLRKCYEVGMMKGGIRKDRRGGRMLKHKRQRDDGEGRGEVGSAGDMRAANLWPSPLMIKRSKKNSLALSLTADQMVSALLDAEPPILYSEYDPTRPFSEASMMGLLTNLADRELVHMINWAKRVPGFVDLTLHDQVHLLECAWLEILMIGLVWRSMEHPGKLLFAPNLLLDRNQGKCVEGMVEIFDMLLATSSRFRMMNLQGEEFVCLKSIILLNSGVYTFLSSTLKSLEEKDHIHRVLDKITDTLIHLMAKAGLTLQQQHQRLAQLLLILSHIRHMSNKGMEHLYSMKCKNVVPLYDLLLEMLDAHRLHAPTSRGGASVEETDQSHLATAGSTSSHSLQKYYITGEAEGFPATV

[31] = molecular target: Mitogen-activated protein kinase 10 (Homo sapiens, UniProt P53779); assay: Dose response biochemical screening assay for inhibitors of c-Jun N-Terminal Kinase 3 (JNK3). [Related pubchem assays: 746 ]
[32] = molecular target: Trypsin (Sus scrofa, UniProt P00761); assay: trypsin protease activity blockade – biochemical, quenched peptide fluorescence, cherry-pick, selectivity assay for Rce1 protease inhibitor project, dose response (AID 488789)
[33] = molecular target: T9, CAAX prenyl protease 2 (Saccharomyces cerevisiae S288c, UniProt Q03530); format: biochemical
T9 sequence (Q03530 whole entry): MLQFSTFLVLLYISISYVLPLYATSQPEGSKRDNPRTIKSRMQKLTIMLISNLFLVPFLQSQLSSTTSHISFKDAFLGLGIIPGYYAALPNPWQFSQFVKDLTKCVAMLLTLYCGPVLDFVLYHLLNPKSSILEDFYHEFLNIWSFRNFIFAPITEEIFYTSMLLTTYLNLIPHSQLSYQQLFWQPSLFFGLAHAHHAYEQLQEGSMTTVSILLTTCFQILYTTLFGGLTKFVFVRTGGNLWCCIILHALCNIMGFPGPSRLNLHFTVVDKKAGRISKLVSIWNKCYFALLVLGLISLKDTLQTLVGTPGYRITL

[34] = molecular target: CAAX prenyl protease 1 (Saccharomyces cerevisiae S288c, UniProt P47154); assay: yeast CAAX protease Ste24 inhibition – biochemical, S. cerevisiae, plate reader, cherry-pick, dose response (AID 488815)

T2 sequence (Q00975 whole entry): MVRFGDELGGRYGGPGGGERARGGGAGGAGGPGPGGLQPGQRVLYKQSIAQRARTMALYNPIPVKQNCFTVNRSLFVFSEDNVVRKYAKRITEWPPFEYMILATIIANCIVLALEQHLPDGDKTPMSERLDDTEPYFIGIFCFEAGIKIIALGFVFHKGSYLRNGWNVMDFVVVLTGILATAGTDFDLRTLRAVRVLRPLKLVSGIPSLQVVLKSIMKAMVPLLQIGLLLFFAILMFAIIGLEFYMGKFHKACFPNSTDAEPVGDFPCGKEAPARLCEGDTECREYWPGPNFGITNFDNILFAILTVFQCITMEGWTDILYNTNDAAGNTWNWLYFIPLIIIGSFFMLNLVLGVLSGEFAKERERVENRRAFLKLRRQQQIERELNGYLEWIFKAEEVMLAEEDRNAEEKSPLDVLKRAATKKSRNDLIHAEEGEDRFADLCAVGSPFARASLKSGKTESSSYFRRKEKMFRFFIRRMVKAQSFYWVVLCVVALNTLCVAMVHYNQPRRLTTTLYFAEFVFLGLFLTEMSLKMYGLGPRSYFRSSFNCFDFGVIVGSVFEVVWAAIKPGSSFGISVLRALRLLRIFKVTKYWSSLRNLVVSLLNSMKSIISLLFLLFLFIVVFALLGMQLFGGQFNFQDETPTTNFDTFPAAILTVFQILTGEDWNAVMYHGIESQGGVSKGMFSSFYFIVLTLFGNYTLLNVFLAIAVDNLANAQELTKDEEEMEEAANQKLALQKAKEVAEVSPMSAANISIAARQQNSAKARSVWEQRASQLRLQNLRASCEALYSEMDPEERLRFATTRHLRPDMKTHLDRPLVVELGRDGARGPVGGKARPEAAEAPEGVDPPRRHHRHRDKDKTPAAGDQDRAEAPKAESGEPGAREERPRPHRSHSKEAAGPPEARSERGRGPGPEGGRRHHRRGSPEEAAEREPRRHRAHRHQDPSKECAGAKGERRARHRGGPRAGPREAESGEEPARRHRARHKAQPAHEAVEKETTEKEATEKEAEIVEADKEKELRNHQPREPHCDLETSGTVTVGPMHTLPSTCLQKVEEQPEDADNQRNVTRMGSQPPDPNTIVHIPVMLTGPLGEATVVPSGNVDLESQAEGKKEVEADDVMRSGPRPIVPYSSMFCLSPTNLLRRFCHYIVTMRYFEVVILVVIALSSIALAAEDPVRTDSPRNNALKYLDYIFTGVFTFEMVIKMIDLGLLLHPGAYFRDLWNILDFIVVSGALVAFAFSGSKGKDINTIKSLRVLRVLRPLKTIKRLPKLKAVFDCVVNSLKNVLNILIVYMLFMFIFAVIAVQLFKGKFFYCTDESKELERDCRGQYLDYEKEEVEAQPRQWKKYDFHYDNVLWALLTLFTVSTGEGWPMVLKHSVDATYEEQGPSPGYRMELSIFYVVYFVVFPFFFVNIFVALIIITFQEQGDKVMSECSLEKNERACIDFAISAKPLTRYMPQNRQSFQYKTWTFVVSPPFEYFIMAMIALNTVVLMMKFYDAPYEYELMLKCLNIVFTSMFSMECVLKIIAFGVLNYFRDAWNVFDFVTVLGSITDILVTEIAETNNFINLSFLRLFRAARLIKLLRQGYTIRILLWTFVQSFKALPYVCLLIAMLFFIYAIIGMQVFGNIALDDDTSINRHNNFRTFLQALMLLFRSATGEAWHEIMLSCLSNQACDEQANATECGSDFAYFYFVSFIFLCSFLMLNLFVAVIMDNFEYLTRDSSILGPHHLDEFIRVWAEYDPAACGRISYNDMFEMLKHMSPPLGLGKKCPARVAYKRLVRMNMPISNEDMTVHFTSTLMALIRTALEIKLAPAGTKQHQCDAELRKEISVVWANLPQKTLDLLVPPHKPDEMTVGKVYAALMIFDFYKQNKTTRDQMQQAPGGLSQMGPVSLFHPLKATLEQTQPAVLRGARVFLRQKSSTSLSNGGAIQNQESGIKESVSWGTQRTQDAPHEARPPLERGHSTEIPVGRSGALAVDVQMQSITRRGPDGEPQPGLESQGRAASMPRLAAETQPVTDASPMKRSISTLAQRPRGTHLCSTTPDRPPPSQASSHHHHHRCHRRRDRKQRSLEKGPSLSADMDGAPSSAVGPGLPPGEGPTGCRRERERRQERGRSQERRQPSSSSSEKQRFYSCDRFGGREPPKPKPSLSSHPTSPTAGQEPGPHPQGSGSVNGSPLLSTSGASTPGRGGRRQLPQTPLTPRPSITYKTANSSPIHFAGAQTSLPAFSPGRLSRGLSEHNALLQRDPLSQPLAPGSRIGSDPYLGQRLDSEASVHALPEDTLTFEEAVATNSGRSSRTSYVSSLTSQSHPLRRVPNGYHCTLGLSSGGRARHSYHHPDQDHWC
T2 sequence (Q02410 whole entry): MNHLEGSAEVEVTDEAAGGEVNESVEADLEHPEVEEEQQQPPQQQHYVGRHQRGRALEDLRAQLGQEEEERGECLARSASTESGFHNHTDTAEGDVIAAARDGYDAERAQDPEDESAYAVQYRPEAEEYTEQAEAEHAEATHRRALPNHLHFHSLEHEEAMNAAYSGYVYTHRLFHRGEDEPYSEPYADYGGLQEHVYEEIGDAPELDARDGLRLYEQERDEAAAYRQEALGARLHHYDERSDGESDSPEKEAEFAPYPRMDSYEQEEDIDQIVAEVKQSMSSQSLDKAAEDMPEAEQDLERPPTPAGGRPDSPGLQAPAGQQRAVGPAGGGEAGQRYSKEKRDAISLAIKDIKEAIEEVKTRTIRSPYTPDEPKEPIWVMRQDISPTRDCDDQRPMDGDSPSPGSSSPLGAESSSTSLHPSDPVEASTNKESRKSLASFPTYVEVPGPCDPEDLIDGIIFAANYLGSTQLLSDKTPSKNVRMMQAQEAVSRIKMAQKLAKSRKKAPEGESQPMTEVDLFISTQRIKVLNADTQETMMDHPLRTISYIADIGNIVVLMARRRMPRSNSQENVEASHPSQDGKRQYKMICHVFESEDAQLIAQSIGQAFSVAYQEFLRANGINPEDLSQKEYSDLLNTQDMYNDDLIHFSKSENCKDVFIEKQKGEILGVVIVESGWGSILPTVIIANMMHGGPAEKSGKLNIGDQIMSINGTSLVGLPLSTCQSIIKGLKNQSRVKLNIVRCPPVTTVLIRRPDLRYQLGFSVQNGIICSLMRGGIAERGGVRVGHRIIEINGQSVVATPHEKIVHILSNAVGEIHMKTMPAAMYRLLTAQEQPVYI
T3 sequence (Q07820 whole entry): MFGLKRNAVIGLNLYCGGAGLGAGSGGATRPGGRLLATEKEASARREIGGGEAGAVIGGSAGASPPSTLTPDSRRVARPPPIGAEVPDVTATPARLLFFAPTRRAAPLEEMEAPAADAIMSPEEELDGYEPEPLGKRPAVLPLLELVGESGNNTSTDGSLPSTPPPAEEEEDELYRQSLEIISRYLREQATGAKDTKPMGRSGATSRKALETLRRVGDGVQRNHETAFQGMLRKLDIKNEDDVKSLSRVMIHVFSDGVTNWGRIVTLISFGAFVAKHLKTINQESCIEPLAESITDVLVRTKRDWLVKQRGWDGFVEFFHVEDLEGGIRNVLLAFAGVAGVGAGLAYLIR
SUMO E1/E2, sequence (Q9UBE0 whole entry): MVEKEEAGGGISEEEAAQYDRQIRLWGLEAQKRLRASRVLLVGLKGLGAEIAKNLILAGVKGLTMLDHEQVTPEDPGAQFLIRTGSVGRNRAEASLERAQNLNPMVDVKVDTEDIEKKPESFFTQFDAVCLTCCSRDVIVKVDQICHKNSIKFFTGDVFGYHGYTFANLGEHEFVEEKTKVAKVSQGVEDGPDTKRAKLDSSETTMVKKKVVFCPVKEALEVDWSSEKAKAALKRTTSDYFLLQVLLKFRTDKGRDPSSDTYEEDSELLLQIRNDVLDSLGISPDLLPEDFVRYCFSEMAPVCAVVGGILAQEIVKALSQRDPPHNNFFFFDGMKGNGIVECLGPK
SUMO E1/E2, sequence (Q9UBT2 whole entry): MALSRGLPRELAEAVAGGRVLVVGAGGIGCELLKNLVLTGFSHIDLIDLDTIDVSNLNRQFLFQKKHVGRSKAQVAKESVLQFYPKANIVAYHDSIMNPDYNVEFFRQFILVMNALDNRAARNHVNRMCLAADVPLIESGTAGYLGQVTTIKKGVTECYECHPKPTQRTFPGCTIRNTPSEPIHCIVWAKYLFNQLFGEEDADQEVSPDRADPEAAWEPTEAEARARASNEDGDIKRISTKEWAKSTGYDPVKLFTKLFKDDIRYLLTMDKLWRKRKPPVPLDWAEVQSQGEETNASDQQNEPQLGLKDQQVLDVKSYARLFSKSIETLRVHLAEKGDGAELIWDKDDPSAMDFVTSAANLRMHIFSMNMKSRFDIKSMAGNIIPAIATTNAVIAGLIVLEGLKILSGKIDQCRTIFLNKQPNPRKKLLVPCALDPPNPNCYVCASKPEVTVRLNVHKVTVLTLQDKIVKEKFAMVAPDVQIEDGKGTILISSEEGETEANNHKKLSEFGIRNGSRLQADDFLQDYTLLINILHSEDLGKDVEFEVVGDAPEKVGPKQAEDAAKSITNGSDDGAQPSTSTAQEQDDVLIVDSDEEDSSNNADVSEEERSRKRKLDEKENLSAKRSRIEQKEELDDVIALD
SUMO E1/E2, sequence (P63279 whole entry): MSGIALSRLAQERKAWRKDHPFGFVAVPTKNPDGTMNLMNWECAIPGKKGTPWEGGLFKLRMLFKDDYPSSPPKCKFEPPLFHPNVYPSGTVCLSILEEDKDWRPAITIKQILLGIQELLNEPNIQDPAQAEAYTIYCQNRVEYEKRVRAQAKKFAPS
T4 sequence (P65502 whole entry): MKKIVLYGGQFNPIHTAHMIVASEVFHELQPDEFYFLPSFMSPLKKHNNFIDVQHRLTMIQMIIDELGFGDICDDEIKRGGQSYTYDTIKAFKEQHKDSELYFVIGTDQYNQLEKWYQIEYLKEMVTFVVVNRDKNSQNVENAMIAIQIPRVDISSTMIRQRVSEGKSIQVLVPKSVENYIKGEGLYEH
Protein Rev, sequence (P05866 whole entry): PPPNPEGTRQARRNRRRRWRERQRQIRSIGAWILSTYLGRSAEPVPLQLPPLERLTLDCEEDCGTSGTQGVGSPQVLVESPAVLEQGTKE

## O=C(N/N=C/c1cccc(F)c1)c1cc(-c2ccco2)nc2ccccc12
[1]
  IC50: > 49.8 µM (not active)
[2]
  IC50: > 79.4 µM (not active)
[3]
  IC50: 3.18 µM (active)
[4]
  IC50: 8.21 µM (active)
[5]
  IC50: 7.19 µM (active)
[6]
  IC50: 2.25 µM (active)
[7]
  IC50: > 109 µM (not active)
[8]
  IC50: 1.67 µM (active)
[9]
  IC50: 7.16 µM (active) and 9.07 µM (active)
[10]
  IC50: 12.9 µM (active) and 4.79 µM (active)
[11]
  IC50: > 56.8 µM (inactive) and 8.96 µM (active)
[12]
  IC50: 4.81 µM (active)
[13]
  IC50: 7.33 µM (active)
[14]
  IC50: 21.1 µM (active)

## CC(=O)c1cccc(CN2CCCC(CCC(=O)NCc3ccc(F)c(F)c3)C2)c1 (centres undefined)
[15]
  EC50: 0.069 µM (active)
[16]
  EC50: < 0.1 µM (active)
[17]
  EC50: > 195 µM (not active)
[18]
  EC50: > 60 µM (not active)
[19]
  EC50: 0.069 µM (active)
[20]
  EC50: 0.07 µM (active)

## CC(C)CC(=O)NC(=S)NNC(=O)c1ccc(NC(=O)C2CCCCC2)cc1
[21]
  EC50: 43.7 µM (active)
[22]
  EC50: 0.517 µM (active)
[23]
  EC50: > 150 µM (not active)
[24]
  EC50: 2.57 µM (active)
[25]
  EC50: 9.89 µM (active)
[26]
  EC50: 43.2 µM (active)
[27]
  EC50: 18.7 µM (active)
[28]
  EC50: 58.1 µM (active)
[29]
  EC50: 70.2 µM (active)

## O=C1c2ccccc2NC2=NCCCCN12
[30]
  IC50: > 50 µM (not active)
[31]
  IC50: 39.5 µM (not active)
[32]
  AC50: 11.4 µM (active)
[33]
  AC50: 31.1 µM (active)
[34]
  AC50: 3.9 µM (active)
